Earlier results, collected in patent publication US8277782B2, “Topical oral care compositions comprising host response modulating agents” (The Procter & Gamble Company, priority 2000, dated 2012).

Test system: alveolar bone
Settings: non steroidal anti-inflammatory drugs, cyclo-oxygenase inhibitors; prior knowledge

Compound | resorption of alveolar bone
CC(C(=O)O)c1ccc(-c2ccccc2)c(F)c1 (centres unmarked) [flurbiprofen] | markedly reduce
COc1ccc2c(c1)c(CC(=O)O)c(C)n2C(=O)c1ccc(Cl)cc1 [indomethacin] | markedly reduce
